Data as given in US8754054B2, “Antibacterial compounds, methods of making them, and uses thereof” (Albany Molecular Research, Inc., priority 2010, dated 2014).
Converted amounts (≈) assume the structure as drawn.

system: MRSA 43300; experiment: Antibacterial activity, NCCLS dilution method (Table 9); assay type: cell-based, S. aureus; conditions: Staphylococcus aureus, MRSA, MRSA 43300; dilution method; labels marked a tested as a mixture of diastereomers; read-out: MRSA 43300 MIC
From the text: NCCLS standards for antimicrobial susceptibility testing using the dilution method were followed. See: Performance Standards for Antimicrobial Susceptibility Testing; Fourteenth Informational Supplement. NCCLS Document M100-S14 (ISBN 1-56238-516-X), 2004. NCCLS, 940 West Valley Road, Suite 1400, Wayne, Pa. 19087-1898 USA, 2004; Methods for Dilution Antimicrobial Susceptibility Tests for Bacteria that Grow Aerobically; Approved Standard—Sixth Edition. NCCLS document M7-A6 (IBSBN 1-56238-486-4), NCCLS, 940 West Valley Road, Suite 1400, Wayne, Pa. 19087-1898 USA, 2003, which are hereby incorporated by reference in their entirety.

| Structure (SMILES) | MIC [mg/L] |
| --- | --- |
| CO[C@@H]1[C@@H](O)[C@@H](OC)C(NC2=CC(=O)c3c(cc4c(c3O)C(=O)[C@]3(OC)[C@H](O)Cc5cc(C)c(C(=O)NCCCc6ccccc6)c(O)c5[C@]3(O)C4=O)C2=O)O[C@H]1C (mixture of isomers) [Example 25, (6R,6aS,14aR)-1,6,8,14a-Tetrahydroxy-11-((3R,4R,5R,6S)-4-hydroxy-3,5-dimethoxy-6-methyltetrahydro-2H-pyran-2-ylamino)-6a-methoxy-3-methyl-7,9,12,14-tetraoxo-N-(3-phenylpropyl)-5,6,6a,7,9,12,14,14a-octahydrobenzo[a]tetracene-2-carboxamide] | 2 to 4 (≈ 2.5 to 4.99 µM) |
| CO[C@@H]1[C@@H](O)[C@@H](OC)C(NC2=CC(=O)c3c(cc4c(c3O)C(=O)[C@]3(OC)[C@H](O)Cc5cc(C)c(C(=O)NC(C)C)c(O)c5[C@]3(O)C4=O)C2=O)O[C@H]1C (mixture of isomers) [Example 31, (6R,6aS,14aR)-1,6,8,14a-Tetrahydroxy-11-((3R,4R,5R,6S)-4-hydroxy-3,5-dimethoxy-6-methyltetrahydro-2H-pyran-2-ylamino)-N-isopropyl-6a-methoxy-3-methyl-7,9,12,14-tetraoxo-5,6,6a,7,9,12,14,14a-octahydrobenzo[a]tetracene-2-carboxamide] | 2 (≈ 2.76 µM) |
| COCCC/N=C1\C=C(N[C@H]2O[C@@H](C)[C@H](OC)[C@@H](O)[C@H]2OC)C(=O)c2cc3c(c(O)c21)C(=O)[C@]1(OC)[C@H](O)Cc2cc(C)c(C(=O)OC)c(O)c2[C@]1(O)C3=O [Example 47, (6R,6aS,14aR,E)-Methyl 1,6,8,14a-tetrahydroxy-11-((2S,3R,4R,5R,6S)-4-hydroxy-3,5-dimethoxy-6-methyltetrahydro-2H-pyran-2-ylamino)-6a-methoxy-9-(3-methoxypropylimino)-3-methyl-7,12,14-trioxo-5,6,6a,7,9,12,14,14a-octahydrobenzo[a]tetracene-2-carboxylate] | 1 to 2 (≈ 1.3 to 2.6 µM) |
| COC(=O)c1c(C)cc2c(c1O)[C@]1(O)C(=O)c3cc4c(c(O)c3C(=O)[C@]1(OC)/C(=N/O)C2)C(=O)C=C(N[C@H]1O[C@@H](C)[C@H](OC)/C(=N/O)[C@H]1OC)C4=O [Example 53, (6aS,14aR,E)-Methyl 1,8,14a-trihydroxy-6-(hydroxyimino)-11-((2S,3R,5R,6S,Z)-4-(hydroxyimino)-3,5-dimethoxy-6-methyltetrahydro-2H-pyran-2-ylamino)-6a-methoxy-3-methyl-7,9,12,14-tetraoxo-5,6,6a,7,9,12,14,14a-octahydrobenzo[a]tetracene-2-carboxylate] | 0.12 (≈ 0.166 µM) |
| COC(=O)c1c(C)cc2c(c1O)[C@]1(O)C(=O)c3cc4c(c(O)c3C(=O)[C@]1(OC)[C@H](O)C2)C(=O)C=C(N[C@H]1O[C@@H](C)[C@H](OC)C(=NO)[C@H]1OC)C4=O (single isomer, unassigned) [Example 49] | 0.06 (≈ 0.0844 µM) |
| COC(=O)c1c(C)cc2c(c1OCC(N)=O)[C@]1(O)C(=O)c3cc4c(c(O)c3C(=O)[C@]1(OC)[C@H](O)C2)C(=O)C=C(NC1O[C@@H](C)[C@H](OC)[C@@H](O)[C@H]1OC)C4=O (stereo partly drawn) [Example 10, (6R,6aS,14aR)-Methyl 1-(2-amino-2-oxoethoxy)-6,8,14a-trihydroxy-11-((3R,4R,5R,6S)-4-hydroxy-3,5-dimethoxy-6-methyltetrahydro-2H-pyran-2-ylamino)-6a-methoxy-3-methyl-7,9,12,14-tetraoxo-5,6,6a,7,9,12,14,14a-octahydrobenzo[a]tetracene-2-carboxylate] | 32 (≈ 42.4 µM) |
| CO[C@@H]1[C@@H](O)[C@@H](OC)C(NC2=CC(=O)c3c(cc4c(c3O)C(=O)[C@]3(OC)[C@H](O)Cc5cc(C)c(C(=O)NC6CCCCC6)c(O)c5[C@]3(O)C4=O)C2=O)O[C@H]1C (mixture of isomers) [Example 18, (6R,6aS,14aR)—N-Cyclohexyl-1,6,8,14a-tetrahydroxy-11-((3R,4R,5R,6S)-4-hydroxy-3,5-dimethoxy-6-methyltetrahydro-2H-pyran-2-ylamino)-6a-methoxy-3-methyl-7,9,12,14-tetraoxo-5,6,6a,7,9,12,14,14a-octahydrobenzo[a]tetracene-2-carboxamide] | 2 (≈ 2.62 µM) |
| COC(=O)COc1c(C(=O)OC)c(C)cc2c1[C@]1(O)C(=O)c3cc4c(c(O)c3C(=O)[C@]1(OC)[C@H](O)C2)C(=O)C=C(N[C@H]1O[C@@H](C)[C@H](OC)[C@@H](O)[C@H]1OC)C4=O [Example 6, (6R,6aS,14aR)-Methyl 6,8,14a-trihydroxy-11-((2S,3R,4R,5R,6S)-4-hydroxy-3,5-dimethoxy-6-methyltetrahydro-2H-pyran-2-ylamino)-6a-methoxy-1-(2-methoxy-2-oxoethoxy)-3-methyl-7,9,12,14-tetraoxo-5,6,6a,7,9,12,14,14a-octahydrobenzo[a]tetracene-2-carboxylate] | 0.12 (≈ 0.156 µM) |
| CO[C@@H]1[C@@H](O)[C@@H](OC)[C@@H](NC2=CC(=O)c3c(cc4c(c3O)C(=O)[C@]3(OC)[C@H](O)Cc5cc(C)c(C(=O)OCC(C)C)c(O)c5[C@]3(O)C4=O)C2=O)O[C@H]1C [Example 36] | 0.12 (≈ 0.162 µM) |
| COC(=O)c1c(C)cc2c(c1O)[C@]1(O)C(=O)c3cc4c(c(O)c3C(=O)[C@]1(OC)[C@H](O)C2)C(=O)C=C(N[C@H]1O[C@@H](C)[C@H](OC)/C(=N/OCCN)[C@H]1OC)C4=O [Example 52, (6R,6aS,14aR)-Methyl 11-((2S,3R,5R,6S,Z)-4-(2-aminoethoxyimino)-3,5-dimethoxy-6-methyltetrahydro-2H-pyran-2-ylamino)-1,6,8,14a-tetrahydroxy-6a-methoxy-3-methyl-7,9,12,14-tetraoxo-5,6,6a,7,9,12,14,14a-octahydrobenzo[a]tetracene-2-carboxylate] | 0.12 to 0.25 (≈ 0.159 to 0.332 µM) |
| COC(=O)c1c(C)cc2c(c1O)[C@]1(O)C(=O)c3cc4c5c(nc(=O)oc5c3C(=O)[C@]1(OC)[C@H](O)C2)C=C(N[C@H]1O[C@@H](C)[C@H](OC)[C@@H](O)[C@H]1OC)C4=O [Example 60, (8aR,12R,12aS)-8a,12-Dihydroxy-5-((2S,3R,4R,5R,6S)-4-hydroxy-3,5-dimethoxy-6-methyltetrahydro-2H-pyran-2-ylamino)-12a-methoxy-8a,9,10,11,12,12a-hexahydro-(1-hydroxy-2-methoxycarbonyl-3-methylbenzo) [9,10-a]tetraceno[1,12-de][1,3]oxazine-2,6,8,13-tetraone] | 0.12 to 0.5 (≈ 0.166 to 0.692 µM) |
| CNC(=O)c1c(C)cc2c(c1O)[C@]1(O)C(=O)c3cc4c(c(O)c3C(=O)[C@]1(OC)[C@H](O)C2)C(=O)C=C(NC1O[C@@H](C)[C@H](OC)[C@@H](O)[C@H]1OC)C4=O (mixture of isomers) [Example 19, (6R,6aS,14aR)-1,6,8,14a-Tetrahydroxy-11-((3R,4R,5R,6S)-4-hydroxy-3,5-dimethoxy-6-methyltetrahydro-2H-pyran-2-ylamino)-6a-methoxy-N,3-dimethyl-7,9,12,14-tetraoxo-5,6,6a,7,9,12,14,14a-octahydrobenzo[a]tetracene-2-carboxamide] | 2 (≈ 2.87 µM) |
| COC(=O)c1c(C)cc2c(c1O)[C@]1(O)C(=O)c3cc4c(c(O)c3C(=O)[C@]1(OC)[C@H](O)C2)C(=O)C=C(N[C@H]1O[C@@H](C)[C@H](OC)[C@@H](O)[C@H]1OC)C4=O [Example 2, (6R,6aS,14aR)-methyl 1,6,8,14a-tetrahydroxy-11-((2S,3R,4R,5R,6S)-4-hydroxy-3,5-dimethoxy-6-methyltetrahydro-2H-pyran-2-ylamino)-6a-methoxy-3-methyl-7,9,12,14-tetraoxo-5,6,6a,7,9,12,14,14a-octahydrobenzo[a]tetracene-2-carboxylate] | 0.008 (≈ 0.0115 µM) |
| C/N=C1\C=C(N[C@H]2O[C@@H](C)[C@H](OC)[C@@H](O)[C@H]2OC)C(=O)c2cc3c(c(O)c21)C(=O)[C@]1(OC)[C@H](O)Cc2cc(C)c(C(=O)OC)c(O)c2[C@]1(O)C3=O [Example 44, (6R,6aS,14aR,E)-Methyl 1,6,8,14a-tetrahydroxy-11-((2S,3R,4R,5R,6S)-4-hydroxy-3,5-dimethoxy-6-methyltetrahydro-2H-pyran-2-ylamino)-6a-methoxy-3-methyl-9-(methylimino)-7,12,14-trioxo-5,6,6a,7,9,12,14,14a-octahydrobenzo[a]tetracene-2-carboxylate] | 1 to 2 (≈ 1.41 to 2.81 µM) |
| COc1ccc(CNC(=O)c2c(C)cc3c(c2O)[C@]2(O)C(=O)c4cc5c(c(O)c4C(=O)[C@]2(OC)[C@H](O)C3)C(=O)C=C(N[C@H]2O[C@@H](C)[C@H](OC)[C@@H](O)[C@H]2OC)C5=O)cc1 [Example 28, (6R,6aS,14aR)-1,6,8,14a-Tetrahydroxy-11-((3R,4R,5R,6S)-4-hydroxy-3,5-dimethoxy-6-methyltetrahydro-2H-pyran-2-ylamino)-6a-methoxy-N-(4-methoxybenzyl)-3-methyl-7,9-12-14-tetraoxo-5,6,6a,7,9,12,14,14a-octahydrobenzo[a]tetracene-2-carboxamide] | 0.5 (≈ 0.623 µM) |
| CCOC(=O)CCC1(O)C(N[C@H]2O[C@@H](C)[C@H](OC)[C@@H](O)[C@H]2OC)=CC(=N)c2c1cc1c(c2O)C(=O)[C@]2(OC)[C@H](O)Cc3cc(C)c(C(=O)OC)c(O)c3[C@]2(O)C1=O (stereo partly drawn) [Example 59, (6R,6aS,14aR)-methyl 12-(3-ethoxy-3-oxopropyl)-1,6,8,12,14a-pentahydroxy-11-((2S,3R,4R,5R,6S)-4-hydroxy-3,5-dimethoxy-6-methyltetrahydro-2H-pyran-2-ylamino)-9-imino-6a-methoxy-3-methyl-7,14-dioxo-5,6,6a,7,9,12,14,14a-octahydrobenzo[a]tetracene-2-carboxylate] | 32 (≈ 40.1 µM) |
| COC(=O)c1c(C)cc2c(c1OC)[C@]1(O)C(=O)c3cc4c(c(OC)c3C(=O)[C@]1(OC)[C@H](O)C2)C(=O)C=C(NC1O[C@@H](C)[C@H](OC)[C@@H](O)[C@H]1OC)C4=O (mixture of isomers) [Example 5, (6R,6aS,14aR)-Methyl 6,14a-dihydroxy-11-((3R,4R,5R,6S)-4-hydroxy-3,5-dimethoxy-6-methyltetrahydro-2H-pyran-2-ylamino)-1,6a,8-trimethoxy-3-methyl-7,9,12,14-tetraoxo-5,6,6a,7,9,12,14,14a-octahydrobenzo[a]tetracene-2-carboxylate] | 2 (≈ 2.76 µM) |
